Assay results from patent US20120039847A1, “Hepatitis C Virus Inhibitors” (priority 2010, published 2012).
pIC50: −log10 of the molar value.

Tested on: HCV genotype 1b replicon (2209-23 cells, Huh7)
Assay: HCV replicon assay (Renilla luciferase reporter)
Assay type: cell-based
Details: Hepatitis C virus, Huh-7, 72 h, Huh7-derived cell line 2209-23, three days incubation, luciferase readout

Row | SMILES | pIC50
1 | COC(=O)N[C@H](C(=O)N1CCC[C@H]1C(=O)Nc1ccc2cc(-c3ccc(-c4cnc([C@@H]5CCCN5C(=O)[C@@H](NC(=O)OC)C(C)C)[nH]4)cc3)ccc2c1)C(C)C [I-1, ((S)-1-{(S)-2-[6-(4-{2-[(S)-1-((S)-2-Methoxycarbonylamino-3-methyl-butyryl)-pyrrolidin-2-yl]-3H-imidazol-4-yl}-phenyl)-naphthalen-2-ylcarbamoyl]-pyrrolidine-1-carbonyl}-2-methyl-propyl)-carbamic acid methyl ester] | 10.39
2 | COC(=O)N[C@H](C(=O)N1CCC[C@H]1C(=O)NC1CCCc2cc(-c3ccc(-c4cnc([C@@H]5CCCN5C(=O)[C@@H](NC(=O)OC)C(C)C)[nH]4)cc3)ccc21)C(C)C (stereo partly drawn) [I-2, [(S)-1-((S)-2-{5-[4-(5-{[(S)-1-((S)-2-Methoxycarbonylamino-3-methyl-butyryl)-pyrrolidine-2-carbonyl]-amino}-5,6,7,8-tetrahydro-naphthalen-2-yl)-phenyl]-1H-imidazol-2-yl}-pyrrolidine-1-carbonyl)-2-methyl-propyl]-carbamic acid methyl ester] | 8.40
3 | COC(=O)N[C@H](C(=O)N1CCC[C@H]1C(=O)Nc1ccc2nc(-c3ccc(-c4cnc([C@@H]5CCCN5C(=O)[C@@H](NC(=O)OC)C(C)C)[nH]4)cc3)ccc2c1)C(C)C [I-3, ((S)-1-{(S)-2-[2-(4-{2-[(S)-1-((S)-2-Methoxycarbonylamino-3-methyl-butyryl)-pyrrolidin-2-yl]-3H-imidazol-4-yl}-phenyl)-quinolin-6-ylcarbamoyl]-pyrrolidine-1-carbonyl}-2-methyl-propyl)-carbamic acid methyl ester] | 9.38
4 | COC(=O)N[C@H](C(=O)N1CCC[C@H]1C(=O)NC1CCc2cc(-c3ccc(-c4cnc([C@@H]5CCCN5C(=O)[C@@H](NC(=O)OC)C(C)C)[nH]4)cc3)ccc21)C(C)C (stereo partly drawn) [I-4, [(S)-1-((S)-2-{5-[4-(1-{[(S)-1-((S)-2-Methoxycarbonylamino-3-methyl-butyryl)-pyrrolidine-2-carbonyl]-amino}-indan-5-yl)-phenyl]-1H-imidazol-2-yl}-pyrrolidine-1-carbonyl)-2-methyl-propyl]-carbamic acid methyl ester] | 9.51
5 | COC(=O)N[C@H](C(=O)N1CCC[C@H]1C(=O)Nc1cccc2cc(-c3ccc(-c4cnc([C@@H]5CCCN5C(=O)[C@@H](NC(=O)OC)C(C)C)[nH]4)cc3)ccc12)C(C)C [I-5, [(S)-1-((S)-2-{5-[4-(5-{[(S)-1-((S)-2-Methoxycarbonylamino-3-methyl-butyryl)-pyrrolidine-2-carbonyl]-amino}-naphthalen-2-yl)-phenyl]-1H-imidazol-2-yl}-pyrrolidine-1-carbonyl)-2-methyl-propyl]-carbamic acid methyl ester] | 9.70
6 | COC(=O)N[C@H](C(=O)N1CCC[C@H]1C(=O)Nc1nccc2cc(-c3ccc(-c4cnc([C@@H]5CCCN5C(=O)[C@@H](NC(=O)OC)C(C)C)[nH]4)cc3)ccc12)C(C)C [I-6, [(S)-1-((S)-2-{5-[4-(1-{[(S)-1-((S)-2-Methoxycarbonylamino-3-methyl-butyryl)-pyrrolidine-2-carbonyl]-amino}-isoquinolin-6-yl)-phenyl]-1H-imidazol-2-yl}-pyrrolidine-1-carbonyl)-2-methyl-propyl]-carbamic acid methyl ester] | 7.86
7 | COC(=O)N[C@H](C(=O)N1CCC[C@H]1C(=O)Nc1ccc2cc(-c3ccc(-c4cnc([C@@H]5CCCN5C(=O)[C@@H](NC(=O)OC)C(C)C)[nH]4)cc3)ccc2n1)C(C)C [I-7, ((S)-1-{(S)-2-[6-(4-{2-[(S)-1-((S)-2-Methoxycarbonylamino-3-methyl-butyryl)-pyrrolidin-2-yl]-3H-imidazol-4-yl}-phenyl)-quinolin-2-ylcarbamoyl]-pyrrolidine-1-carbonyl}-2-methyl-propyl)-carbamic acid methyl ester] | 9.82
8 | COC(=O)N[C@H](C(=O)N1CCC[C@H]1C(=O)Nc1nc2cc(-c3ccc(-c4cnc([C@@H]5CCCN5C(=O)[C@@H](NC(=O)OC)C(C)C)[nH]4)cc3)ccc2[nH]1)C(C)C [I-8, [(S)-1-((S)-2-{5-[4-(2-{[(S)-1-((S)-2-Methoxycarbonylamino-3-methyl-butyryl)-pyrrolidine-2-carbonyl]-amino}-1H-benzoimidazol-5-yl)-phenyl]-1H-imidazol-2-yl}-pyrrolidine-1-carbonyl)-2-methyl-propyl]-carbamic acid methyl ester] | 9.43
9 | COC(=O)N[C@H](C(=O)N1CCC[C@H]1C(=O)NC1Cc2ccc(-c3ccc(-c4cnc([C@@H]5CCCN5C(=O)[C@@H](NC(=O)OC)C(C)C)[nH]4)cc3)cc2C1)C(C)C (stereo partly drawn) [I-9, ((S)-1-{(S)-2-[5-(4-{2-[(S)-1-((S)-2-Methoxycarbonylamino-3-methyl-butyryl)-pyrrolidin-2-yl]-3H-imidazol-4-yl}-phenyl)-indan-2-ylcarbamoyl]-pyrrolidine-1-carbonyl}-2-methyl-propyl)-carbamic acid methyl ester] | 9.37
10 | COC(=O)N[C@H](C(=O)N1CCC[C@H]1C(=O)NC1CCc2cc(-c3ccc(-c4cnc([C@@H]5CCCN5C(=O)[C@@H](NC(=O)OC)C(C)C)[nH]4)cc3)ccc2C1)C(C)C (stereo partly drawn) [I-10, ((S)-1-{(S)-2-[6-(4-{2-[(S)-1-((S)-2-Methoxycarbonylamino-3-methyl-butyryl)-pyrrolidin-2-yl]-3H-imidazol-4-yl}-phenyl)-1,2,3,4-tetrahydro-naphthalen-2-ylcarbamoyl]-pyrrolidine-1-carbonyl}-2-methyl-propyl)-carbamic acid methyl ester] | 8.92
11 | COC(=O)N[C@H](C(=O)N1CCC[C@H]1c1ncc(-c2ccc(-c3ccc4cc(NC(=O)[C@@H]5CCCN5C(C)=O)ccc4n3)cc2)[nH]1)C(C)C [I-11, ((S)-1-{(S)-2-[5-(4-{6-[((S)-1-Acetyl-pyrrolidine-2-carbonyl)-amino]-quinolin-2-yl}-phenyl)-1H-imidazol-2-yl]-pyrrolidine-1-carbonyl}-2-methyl-propyl)-carbamic acid methyl ester] | 9.20
12 | COC(=O)N[C@H](C(=O)N1CCC[C@H]1C(=O)N1CCc2cc(-c3ccc(-c4cnc([C@@H]5CCCN5C(=O)[C@@H](NC(=O)OC)C(C)C)[nH]4)cc3)ccc2C1)C(C)C [I-12, ((S)-1-{(S)-2-[5-(4-{2-[(S)-1-((S)-2-Methoxycarbonylamino-3-methyl-butyryl)-pyrrolidine-2-carbonyl]-1,2,3,4-tetrahydro-isoquinolin-6-yl}-phenyl)-1H-imidazol-2-yl]-pyrrolidine-1-carbonyl}-2-methyl-propyl)-carbamic acid methyl ester] | 8.69
13 | COC(=O)N[C@H](C(=O)N1CCC[C@H]1c1ncc(-c2ccc(-c3ccc4cc(NC(=O)[C@@H]5CCCN5C(=O)C(C)C)ccc4n3)cc2)[nH]1)C(C)C [I-13, ((S)-1-{(S)-2-[5-(4-{6-[((S)-1-Isobutyryl-pyrrolidine-2-carbonyl)-amino]-quinolin-2-yl}-phenyl)-1H-imidazol-2-yl]-pyrrolidine-1-carbonyl}-2-methyl-propyl)-carbamic acid methyl ester] | 8.97
14 | COC(=O)N[C@H](C(=O)N1CCC[C@H]1c1ncc(-c2ccc(-c3ccc4cc(NC(=O)[C@@H]5CCCN5C(=O)CC(C)C)ccc4n3)cc2)[nH]1)C(C)C [I-14, [(S)-2-Methyl-1-((S)-2-{5-[4-(6-{[(S)-1-(3-methyl-butyryl)-pyrrolidine-2-carbonyl]-amino}-quinolin-2-yl)-phenyl]-1H-imidazol-2-yl}-pyrrolidine-1-carbonyl)-propyl]-carbamic acid methyl ester] | 8.77
15 | COC(=O)N[C@H](C(=O)N1CCC[C@H]1c1ncc(-c2ccc(-c3ccc4cc(NC(=O)[C@@H]5CCCN5C(=O)c5ccccc5)ccc4n3)cc2)[nH]1)C(C)C [I-15, ((S)-1-{(S)-2-[5-(4-{6-[((S)-1-Benzoyl-pyrrolidine-2-carbonyl)-amino]-quinolin-2-yl}-phenyl)-1H-imidazol-2-yl]-pyrrolidine-1-carbonyl}-2-methyl-propyl)-carbamic acid methyl ester] | 8.85
16 | COC(=O)N[C@H](C(=O)N1CCC[C@H]1C(=O)NCc1ccc(-c2ccc(-c3cnc([C@@H]4CCCN4C(=O)[C@@H](NC(=O)OC)C(C)C)[nH]3)cc2)cc1)C(C)C [I-16, ((S)-1-{(S)-2-[(4′-{2-[(S)-1-((S)-2-Methoxycarbonylamino-3-methyl-butyryl)-pyrrolidin-2-yl]-3H-imidazol-4-yl}-biphenyl-4-ylmethyl)-carbamoyl]-pyrrolidine-1-carbonyl}-2-methyl-propyl)-carbamic acid methyl ester] | 8.91
